Holding throughout (format): biochemical
The target of assay [1] is T1, JAK2 (Homo sapiens, UniProt O60674).
T1 construct: All four purified enzymes contain only the catalytic domain; His (N); purchased Carna Biosciences, Inc; host or cells: baculovirus expression system
Briefly: JAK2 kinase assay (HTRF, inhibition of phosphorylation of a synthetic peptide). The settings on record: catalytic domain, His-tag; 4 μM ATP (Km); read-out: JAK2 kinase inhibitory activity (EC50). A digest of the protocol:
(§1)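 Baculovirus-expressed human catalytic domains (GST-JAK1, GST-TYK2, His-JAK2, His-JAK3) phosphorylated 1 μM TK substrate-biotin at ATP Km (JAK1 7 μM, JAK2 4 μM, JAK3 2 μM, TYK2 13 μM) in pH 7.0 Hepes for 20-30 min at RT, 0.75% DMSO. EDTA stop, then overnight streptavidin-XL665/cryptate-antibody detection and HTRF read.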
On the technique in general: Time-resolved FRET reads energy transfer from a long-lived donor to a nearby acceptor.

The target in assay [2] is T2, TYK2 (Homo sapiens, UniProt P29597).
T2 construct: JAK1 (aa 850-1154) and TYK2 (aa 871-1187) are expressed with an N-terminally fused GST-tag; GST (N); purchased Carna Biosciences, Inc; host or cells: baculovirus expression system
T2 sequence (P29597 871-1187): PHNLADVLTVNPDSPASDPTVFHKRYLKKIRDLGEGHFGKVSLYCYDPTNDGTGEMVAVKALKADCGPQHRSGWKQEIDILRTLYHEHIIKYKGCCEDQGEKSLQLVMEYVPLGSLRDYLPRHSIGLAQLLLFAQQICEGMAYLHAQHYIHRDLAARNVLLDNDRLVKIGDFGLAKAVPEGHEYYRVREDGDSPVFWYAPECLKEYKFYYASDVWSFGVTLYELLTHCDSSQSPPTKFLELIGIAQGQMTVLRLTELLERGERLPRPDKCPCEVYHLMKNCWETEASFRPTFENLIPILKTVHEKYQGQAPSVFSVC
Kind of assay: TYK2 kinase assay (HTRF, inhibition of phosphorylation of a synthetic peptide). Conditions: catalytic domain aa 871-1187, GST-tag; 13 μM ATP (Km); read-out: TYK2 kinase inhibitory activity (EC50). The essentials: as §1

Assay [3] addresses T3, JAK1 (Homo sapiens, UniProt P23458).
T3 construct: JAK1 (aa 850-1154) and TYK2 (aa 871-1187) are expressed with an N-terminally fused GST-tag; GST (N); purchased Carna Biosciences, Inc; host or cells: baculovirus expression system
Briefly: JAK1 kinase assay (HTRF, inhibition of phosphorylation of a synthetic peptide). Conditions: catalytic domain aa 850-1154, GST-tag; 7 μM ATP (Km); read-out: JAK1 kinase inhibitory activity (EC50). The essentials: as §1

Assay [4] addresses T4, JAK3 (Homo sapiens, UniProt P52333).
T4 construct: All four purified enzymes contain only the catalytic domain; His (N); purchased Carna Biosciences, Inc; host or cells: baculovirus expression system
Briefly: JAK3 kinase assay (HTRF, inhibition of phosphorylation of a synthetic peptide). The settings on record: catalytic domain, His-tag; 2 μM ATP (Km); read-out: JAK3 kinase inhibitory activity (EC50). The essentials: as §1

T3 sequence (P23458 850-1154): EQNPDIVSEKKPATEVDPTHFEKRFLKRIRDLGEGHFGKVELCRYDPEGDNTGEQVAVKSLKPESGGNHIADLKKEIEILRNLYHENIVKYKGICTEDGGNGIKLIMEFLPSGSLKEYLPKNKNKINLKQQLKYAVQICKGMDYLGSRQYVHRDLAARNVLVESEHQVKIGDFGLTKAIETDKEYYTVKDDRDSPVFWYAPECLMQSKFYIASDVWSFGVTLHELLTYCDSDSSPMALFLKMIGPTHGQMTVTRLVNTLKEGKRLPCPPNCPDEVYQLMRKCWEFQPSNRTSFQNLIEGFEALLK
T1 sequence (O60674 849-1124 limits assumed): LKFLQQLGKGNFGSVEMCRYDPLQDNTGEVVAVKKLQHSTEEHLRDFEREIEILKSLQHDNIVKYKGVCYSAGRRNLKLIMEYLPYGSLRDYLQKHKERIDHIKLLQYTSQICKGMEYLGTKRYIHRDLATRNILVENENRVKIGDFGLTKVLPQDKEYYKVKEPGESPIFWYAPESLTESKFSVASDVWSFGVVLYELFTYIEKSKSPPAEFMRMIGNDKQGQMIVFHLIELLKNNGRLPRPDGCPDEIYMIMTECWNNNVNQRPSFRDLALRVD
T4 sequence (P52333 822-1111 limits assumed): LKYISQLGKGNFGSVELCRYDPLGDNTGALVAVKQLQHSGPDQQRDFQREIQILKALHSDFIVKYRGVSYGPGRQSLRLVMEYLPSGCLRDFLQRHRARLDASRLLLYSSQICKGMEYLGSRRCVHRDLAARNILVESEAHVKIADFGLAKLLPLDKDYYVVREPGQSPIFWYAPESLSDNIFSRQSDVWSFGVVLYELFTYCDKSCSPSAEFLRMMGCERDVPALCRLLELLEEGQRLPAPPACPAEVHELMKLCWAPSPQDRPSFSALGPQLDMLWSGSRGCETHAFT

As to `N#Cc1ccc(C(=O)N2CCCN(c3ncnc4[nH]ccc34)CC23CC3)cc1` [Example 56, 4-[5-(7H-pyrrolo[2,3-d]pyrimidin-4-yl)-5,9-diazaspiro[2.6]nonane-9-carbonyl]benzonitrile], the EC50 in assay [1] was under 0.1 µM; in assay [2] it was over 1 µM; in assay [3], under 0.1 µM; in assay [4], 0.1 to 1 µM.
For `N#Cc1cccc(C(=O)N2CCCN(c3ncnc4[nH]ccc34)CC23CC3)c1` [Example 57, 3-[5-(7H-pyrrolo[2,3-d]pyrimidin-4-yl)-5,9-diazaspiro[2.6]nonane-9-carbonyl]benzonitrile], the EC50 in assay [1] was under 0.1 µM; in assay [2], 0.1 to 1 µM; in assay [3], 0.1 to 1 µM; in assay [4], 0.1 to 1 µM.
For the compound `N#Cc1cccc(CC(=O)N2CCCN(c3ncnc4[nH]ccc34)CC23CC3)c1` [Example 58, 3-[2-oxo-2-[5-(7H-pyrrolo[2,3-d]pyrimidin-4-yl)-5,9-diazaspiro[2.6]nonan-9-yl]ethyl]benzonitrile], the EC50 in assay [1], in assay [2], in assay [3] and in assay [4] was over 1 µM in each case.
With `N#Cc1ccc(CC(=O)N2CCCN(c3ncnc4[nH]ccc34)CC23CC3)cc1` [Example 59, 4-[2-oxo-2-[5-(7H-pyrrolo[2,3-d]pyrimidin-4-yl)-5,9-diazaspiro[2.6]nonan-9-yl]ethyl]benzonitrile], the EC50 in assay [1] was 0.1 to 1 µM; in assay [2], over 1 µM; in assay [3], 0.1 to 1 µM; in assay [4], over 1 µM.
Turning to `N#CC1(C(=O)N2CCCN(c3ncnc4[nH]ccc34)CC23CC3)CC1` [Example 60, 1-[5-(7H-pyrrolo[2,3-d]pyrimidin-4-yl)-5,9-diazaspiro[2.6]nonane-9-carbonyl]cyclopropanecarbonitrile], the EC50 in assay [1] was under 0.1 µM; in assay [2] it was over 1 µM; in assay [3], 0.1 to 1 µM; in assay [4], 0.1 to 1 µM.
Turning to `N#CCCC(=O)N1CCCN(c2ncnc3[nH]ccc23)CC12CC2` [Example 61, 4-oxo-4-[5-(7H-pyrrolo[2,3-d]pyrimidin-4-yl)-5,9-diazaspiro[2.6]nonan-9-yl]butanenitrile], the EC50 in assay [1] is 0.1 to 1 µM; in assay [2], over 1 µM; in assay [3] it was 0.1 to 1 µM; in assay [4], 0.1 to 1 µM.
With `N#Cc1ccc(C(=O)N2CCN(c3ncnc4[nH]ccc34)CC3(CC3)C2)cc1` [Example 62, 4-[5-(7H-pyrrolo[2,3-d]pyrimidin-4-yl)-5,8-diazaspiro[2.6]nonane-8-carbonyl]benzonitrile], the EC50 was 0.1 to 1 µM in assay [1], over 1 µM in assay [2], 0.1 to 1 µM in assay [3] and 0.1 to 1 µM in assay [4].
Turning to `NS(=O)(=O)c1ccc(OCC(=O)N2CCN(c3ncnc4[nH]ccc34)CC3(CC3)C2)cc1` [Example 63, 4-[2-oxo-2-[5-(7H-pyrrolo[2,3-d]pyrimidin-4-yl)-5,8-diazaspiro[2.6]nonan-8-yl]ethoxy]benzenesulfonamide], the EC50 in assay [1], in assay [2], in assay [3] and in assay [4] was under 0.1 µM each time.
For `NS(=O)(=O)c1ccc(NC(=O)C(=O)N2CCN(c3ncnc4[nH]ccc34)CC3(CC3)C2)cc1` [Example 64, 2-oxo-2-[5-(7H-pyrrolo[2,3-d]pyrimidin-4-yl)-5,8-diazaspiro[2.6]nonan-8-yl]-N-(4-sulfamoylphenyl)acetamide], the EC50 in assay [1] was under 0.1 µM; in assay [2], 0.1 to 1 µM; in assay [3], under 0.1 µM; in assay [4], under 0.1 µM.
In the case of `NS(=O)(=O)c1ccc(-c2ccc(C(=O)N3CCN(c4ncnc5[nH]ccc45)CC4(CC4)C3)o2)cc1` [Example 65, 4-[5-[5-(7H-pyrrolo[2,3-d]pyrimidin-4-yl)-5,8-diazaspiro[2.6]nonane-8-carbonyl]-2-furyl]benzenesulfonamide], the EC50 in assay [1] is under 0.1 µM; in assay [2] it was 0.1 to 1 µM; in assay [3], under 0.1 µM; in assay [4], 0.1 to 1 µM.
Take `O=C(Cc1ccc(I)cc1)N1CCN(c2ncnc3[nH]ccc23)CC2(CC2)C1` [Example 66, 2-(4-iodophenyl)-1-[5-(7H-pyrrolo[2,3-d]pyrimidin-4-yl)-5,8-diazaspiro[2.6]nonan-8-yl]ethanone]: the EC50 was under 0.1 µM in assay [1], 0.1 to 1 µM in assay [2], under 0.1 µM in assay [3] and 0.1 to 1 µM in assay [4].
With `Nc1nc(N2CCCN(Cc3ccccc3)C3(CC3)C2)c2cc[nH]c2n1` [Example 67, 4-(9-benzyl-5,9-diazaspiro[2.6]nonan-5-yl)-7H-pyrrolo[2,3-d]pyrimidin-2-amine], the EC50 in assay [1], in assay [2], in assay [3] and in assay [4] was over 1 µM each time.
With `Nc1nc(N2CCN(Cc3ccccc3)CC3(CC3)C2)c2cc[nH]c2n1` [Example 68, 4-(5-benzyl-5,8-diazaspiro[2.6]nonan-8-yl)-7H-pyrrolo[2,3-d]pyrimidin-2-amine], the EC50 in assay [1], in assay [2], in assay [3] and in assay [4] was over 1 µM in each case.
Take `N#CCCNS(=O)(=O)c1ccc(C(=O)N2CCN(c3ncnc4[nH]ccc34)CC3(CC3)C2)cc1` [Example 69, N-(2-cyanoethyl)-4-[5-(7H-pyrrolo[2,3-d]pyrimidin-4-yl)-5,8-diazaspiro[2.6]nonane-8-carbonyl]benzenesulfonamide]: the EC50 in assay [1] was 0.1 to 1 µM; in assay [2] it was over 1 µM; in assay [3] it was 0.1 to 1 µM; in assay [4], 0.1 to 1 µM.
For `O=C(c1ccc(S(=O)(=O)NCC2CCCO2)cc1)N1CCN(c2ncnc3[nH]ccc23)CC2(CC2)C1` (stereo not shown) [Example 70], the EC50 in assay [1] was 0.1 to 1 µM; in assay [2], over 1 µM; in assay [3], 0.1 to 1 µM; in assay [4], 0.1 to 1 µM.
With `Cc1cc(S(N)(=O)=O)ccc1C(=O)N1CCN(c2ncnc3[nH]ccc23)CC2(CC2)C1` [Example 71, 3-methyl-4-[5-(7H-pyrrolo[2,3-d]pyrimidin-4-yl)-5,8-diazaspiro[2.6]nonane-8-carbonyl]benzenesulfonamide], the EC50 is 0.1 to 1 µM in assay [1], over 1 µM in assay [2], 0.1 to 1 µM in assay [3] and 0.1 to 1 µM in assay [4].
`CNS(=O)(=O)c1ccc(C(=O)N2CCN(c3ncnc4[nH]ccc34)CC3(CC3)C2)cc1` [Example 72, N-methyl-4-[5-(7H-pyrrolo[2,3-d]pyrimidin-4-yl)-5,8-diazaspiro[2.6]nonane-8-carbonyl]benzenesulfonamide]: the EC50 in assay [1] was under 0.1 µM; in assay [2], over 1 µM; in assay [3] it was 0.1 to 1 µM; in assay [4] it was 0.1 to 1 µM.
On to `NS(=O)(=O)c1cccc(C(=O)N2CCN(c3ncnc4[nH]ccc34)CC3(CC3)C2)c1` [Example 73, 3-[5-(7H-pyrrolo[2,3-d]pyrimidin-4-yl)-5,8-diazaspiro[2.6]nonane-8-carbonyl]benzenesulfonamide], for which the EC50 is 0.1 to 1 µM in assay [1], over 1 µM in assay [2], 0.1 to 1 µM in assay [3] and 0.1 to 1 µM in assay [4].
Consider `COCCNS(=O)(=O)c1ccc(C(=O)N2CCN(c3ncnc4[nH]ccc34)CC3(CC3)C2)cc1` [Example 74, N-(2-methoxyethyl)-4-[5-(7H-pyrrolo[2,3-d]pyrimidin-4-yl)-5,8-diazaspiro[2.6]nonane-8-carbonyl]benzenesulfonamide], for which the EC50 in assay [1] is 0.1 to 1 µM; in assay [2], over 1 µM; in assay [3] it was 0.1 to 1 µM; in assay [4] it was 0.1 to 1 µM.
For `NS(=O)(=O)c1cc(C(=O)N2CCN(c3ncnc4[nH]ccc34)CC3(CC3)C2)cs1` [Example 75], the EC50 is under 0.1 µM in assay [1], 0.1 to 1 µM in assay [2], under 0.1 µM in assay [3] and 0.1 to 1 µM in assay [4].
In the case of `NS(=O)(=O)c1ccc(CC(=O)N2CCN(c3ncnc4[nH]ccc34)CC3(CC3)C2)s1` [Example 76, 5-[2-oxo-2-[5-(7H-pyrrolo[2,3-d]pyrimidin-4-yl)-5,8-diazaspiro[2.6]nonan-8-yl]ethyl]thiophene-2-sulfonamide], the EC50 in assay [1] was under 0.1 µM; in assay [2], 0.1 to 1 µM; in assay [3] it was under 0.1 µM; in assay [4], under 0.1 µM.
Take `O=C(Cc1ccc(-c2nn[nH]n2)cc1)N1CCN(c2ncnc3[nH]ccc23)CC2(CC2)C1` [Example 77, 1-[5-(7H-pyrrolo[2,3-d]pyrimidin-4-yl)-5,8-diazaspiro[2.6]nonan-8-yl]-2-[4-(2H-tetrazol-5-yl)phenyl]ethanone]: the EC50 in assay [1] is under 0.1 µM; in assay [2], 0.1 to 1 µM; in assay [3], under 0.1 µM; in assay [4], 0.1 to 1 µM.

The EC50 is the concentration giving half of the maximal effect.

The values are drawn from patent US9586961B2, “Homopiperazine derivatives as protein tyrosine kinase inhibitors and pharmaceutical use thereof” (LEO PHARMA A/S, priority 2010, dated 2017).
